Reference: patent US20230346827A1 (priority 2020, published 2023)

Tests used:
[1] = tested on: differentiated lung myofibroblasts + (TNFα and TGFβ); experiment: BioMAP MyoF system; format: cell-based, human; details: annotated relative to vehicle controls
Text: (§1) Cell types and stimuli used in each system are as follows: 3C system [HUVEC + (IL-1β, TNFα and IFNy)], 4H system [HUVEC + (IL-4 and histamine)], LPS system [PBMC and HUVEC + LPS (TLR4 ligand)], SAg system [PBMC and HUVEC + TCR ligands], BT system [CD19+ B cells and PBMC + (α-IgM and TCR ligands)], BF4T system [bronchial epithelial cells and HDFn + (TNFα and IL-4)], BE3C system [bronchial epithelial cells + (IL-1β, TNFα and IFNy)], CASM3C system [coronary artery smooth muscle cells + (IL-1 β, TNFα and IFNy)], HDF3CGF system [HDFn + (IL-1β, TNFα, IFNy, EGF, bFGF and PDGF-BB)], KF3CT system [keratinocytes and HDFn + (IL-1β, TNFα, IFNy and TGFβ)], MyoF system [differentiated lung myofibroblasts + (TNFα and TGFβ)] and Mphg system [HUVEC and M1 macrophages + Zymosan (TLR2 ligand)].
(§2) Systems are derived from either single cell types or co-culture systems. Adherent cell types are cultured in 96 or 384-well plates until confluence, followed by the addition of PBMC (SAg and LPS systems). […] Soluble factors from supernatants are quantified using either HTRF® detection, bead-based multiplex immunoassay or capture ELISA. Overt adverse effects of test agents on cell proliferation and viability (cytotoxicity) are detected by sulforhodamine B (SRB) staining, for adherent cells, and alamarBlue® reduction for cells in suspension. […]

[2] = tested on: SARS-CoV-2; details: incubation of SARS-CoV-2 with exogenous LMW-DS; cited from earlier work
[3] = tested on: plasma hepatocyte growth factor (HGF); experiment: Plasma HGF (ELISA) in ALS patients after s.c. LMW-DS 1 mg/kg weekly (Example 2); format: in vivo, human; details: 1 mg/kg s.c.
Procedure: This was a single-center, open single-arm study where the safety, tolerability and efficacy of subcutaneous (s.c.) administered LMW-DS was evaluated in patients with ALS. There were 10 planned visits to the clinic: 1 screening visit divided in 2 parts (Visit 1a and Visit 1b), 5 investigational medicinal product (IMP) administration visits (Visit 2 to Visit 6) and 3 follow-up visits (Visit 7 to Visit 9). Each individual patient’s study participation was planned to be approximately 4 months, including the screening and follow-up visits.
The active pharmaceutical ingredient of the IMP was a low molecular weight dextran sulfate (LMW-DS), (ILB®, Tikomed AB, Viken, Sweden, WO 2016/076780). The drug was used as a solution for s.c. injection and consisted of 20 mg/mL LMW-DS and 9 mg/mL NaCl. Each glass vial contained 10 mL. The dose administered depended on the patient’s body weight at Visit 2, prior to the first LMW-DS administration. LMW-DS was injected s.c. on alternating sides of the abdomen, thigh or the buttock (in that order of priority). Five injections of 1 mg/kg, with 1 week dosing interval, were administered. Changes in immunoreactive HGF were measured by commercial ELISA (R&D HGF ELISA) from blood samples taken at each visit.

[4] = tested on: HUVEC and M1 macrophages + Zymosan (TLR2 ligand); experiment: BioMAP Mphg system; format: cell-based, human; details: annotated relative to vehicle controls
Text: as §1, §2

sodium salt of dextran sulfate [LMW-DS]
Increased biomarker activity [1]: IL-8 | SARS-CoV-2 attachment to human epithelial cell lines [2]: reduces attachment | time of maximum peak of plasma HGF after LMW-DS administration [3]: about 2 hr | Increased biomarker activity [4]: IL-8, CD69
